This is an account of results in patent publication US10399940B2, “Substituted pyrrolidines and methods of use” (AbbVie S.à.r.l., priority 2016, dated 2019).

The test concerns the target T1, F508delCFTR (Homo sapiens, UniProt P13569, DEL508-508).
T1 construct: expressed in transfected cells; host or cells: CFBE41o- (human lung derived epithelial cell line), doxycycline-inducible expression
The experiment in a line: Cell Surface Expression-Horse Radish Peroxidase (CSE-HRP) assay. Format: cell-based. Particulars: CFBE41o-F508delCFTR-HRP cells; for Maximum % activity (with co-corrector): with co-corrector (2 μM); for Maximum % activity (with co-corrector) / Maximum % activity (without co-corrector): normalized to on-plate positive control, highest concentration 20 μM. The procedure, abridged:
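Surface F508delCFTR-HRP was read by luminol luminescence after 18–24 h compound exposure at 33 °C, without or with 2 μM co-corrector. Doses were eight 3-fold steps from 20 μM, in doxycycline-induced (0.5 μg/mL, 72 h) CFBE41o- cells. % activity was scaled to the on-plate 2 μM positive control minus DMSO; EC50 came from a variable-slope sigmoid fit.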

The mark [1] stands for this setting: test compound without co-corrector, 18-24 hours at 33° C., read-out: EC50 (without co-corrector).
The mark [2] stands for this setting: with co-corrector (2 μM of 3-[(2R,4R)-4-({[1-(2,2-difluoro-1,3-benzodioxol-5-yl)cyclopropyl]carbonyl}amino)-7-methoxy-3,4-dihydro-2H-chromen-2-yl]benzoic acid), read-out: EC50 (with co-corrector).

Where two headings read alike, the source gives them in different places.

T1 sequence (P13569 with tags, fused parts or gaps DEL508-508): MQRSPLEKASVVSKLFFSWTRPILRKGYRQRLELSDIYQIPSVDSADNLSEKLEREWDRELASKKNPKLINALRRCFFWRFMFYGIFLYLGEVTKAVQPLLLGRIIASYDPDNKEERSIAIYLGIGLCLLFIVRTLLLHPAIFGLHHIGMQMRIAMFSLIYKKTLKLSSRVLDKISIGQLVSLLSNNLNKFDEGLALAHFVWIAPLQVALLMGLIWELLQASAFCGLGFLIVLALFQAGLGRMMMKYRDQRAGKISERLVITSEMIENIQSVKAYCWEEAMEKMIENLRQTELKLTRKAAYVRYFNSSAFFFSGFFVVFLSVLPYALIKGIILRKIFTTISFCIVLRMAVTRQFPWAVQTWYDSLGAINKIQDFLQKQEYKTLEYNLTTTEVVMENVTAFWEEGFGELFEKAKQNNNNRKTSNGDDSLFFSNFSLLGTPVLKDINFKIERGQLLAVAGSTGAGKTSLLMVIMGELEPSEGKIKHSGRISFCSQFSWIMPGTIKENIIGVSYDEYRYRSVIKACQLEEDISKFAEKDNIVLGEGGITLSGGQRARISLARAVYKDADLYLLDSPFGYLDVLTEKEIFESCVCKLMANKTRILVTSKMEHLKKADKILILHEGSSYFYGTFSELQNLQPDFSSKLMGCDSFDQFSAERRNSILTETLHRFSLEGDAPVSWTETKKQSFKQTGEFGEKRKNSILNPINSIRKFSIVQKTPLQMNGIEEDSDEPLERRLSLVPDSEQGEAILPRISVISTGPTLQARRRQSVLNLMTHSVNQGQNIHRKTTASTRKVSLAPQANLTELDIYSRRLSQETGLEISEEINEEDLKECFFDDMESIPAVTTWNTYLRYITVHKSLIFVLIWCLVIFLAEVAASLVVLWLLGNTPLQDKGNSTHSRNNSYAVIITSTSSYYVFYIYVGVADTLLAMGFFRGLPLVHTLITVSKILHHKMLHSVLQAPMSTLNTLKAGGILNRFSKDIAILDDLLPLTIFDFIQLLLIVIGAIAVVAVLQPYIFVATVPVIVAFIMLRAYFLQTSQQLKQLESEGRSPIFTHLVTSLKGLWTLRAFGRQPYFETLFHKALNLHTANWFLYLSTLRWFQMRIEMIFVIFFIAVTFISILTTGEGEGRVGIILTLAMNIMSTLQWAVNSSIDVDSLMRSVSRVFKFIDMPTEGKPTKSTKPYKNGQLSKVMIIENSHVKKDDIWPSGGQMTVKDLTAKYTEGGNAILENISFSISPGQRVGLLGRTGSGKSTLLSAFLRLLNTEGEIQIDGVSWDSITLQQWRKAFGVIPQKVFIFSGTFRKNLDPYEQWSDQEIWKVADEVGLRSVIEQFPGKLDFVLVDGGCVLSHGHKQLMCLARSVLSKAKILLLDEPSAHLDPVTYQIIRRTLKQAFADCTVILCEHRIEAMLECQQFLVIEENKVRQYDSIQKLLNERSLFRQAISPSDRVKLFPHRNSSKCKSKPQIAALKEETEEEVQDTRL

`COc1ncc(C(F)(F)F)cc1CO[C@H]1[C@H](C(C)(C)C)[C@@H](C(=O)O)N(C(=O)[C@@H]2CCCCO2)[C@H]1c1cccc(Cl)c1` [Example 123, (2S,3R,4S,5S)-3-tert-butyl-5-(3-chlorophenyl)-4-{[2-methoxy-5-(trifluoromethyl)pyridin-3-yl]methoxy}-1-[(2S)-oxane-2-carbonyl]pyrrolidine-2-carboxylic acid]: the “Maximum % activity (with co-corrector)” value was “+++ (≥350)”; the “Maximum % activity (without co-corrector)” value was “++ (≥100 and <200)”. The EC50 under setting [1] fell in the range of 1 to 10 µM. Under setting [2], the EC50 was below 1 µM.

Take `COc1ncc(C(F)(F)F)cc1CO[C@H]1[C@H](C(C)(C)C)[C@@H](C(=O)O)N(C(=O)OC(C)C)[C@H]1c1cccc(Br)c1` [Example 124, (2S,3R,4S,5S)-5-(3-bromophenyl)-3-tert-butyl-4-{[2-methoxy-5-(trifluoromethyl)pyridin-3-yl]methoxy}-1-{[(propan-2-yl)oxy]carbonyl}pyrrolidine-2-carboxylic acid]: the “Maximum % activity (with co-corrector)” value is “++ (≥150 and <350)”; the “Maximum % activity (without co-corrector)” value was “+ (<100)”. The EC50 under setting [1] was 1 to 10 µM. Moreover, the EC50 under setting [2] is below 1 µM.

As to `COc1ncc(C(F)(F)F)cc1CO[C@H]1[C@H](C(C)(C)C)[C@@H](C(=O)O)N(C(=O)[C@H]2CCCCO2)[C@H]1c1cccc(Cl)c1` [Example 125, (2S,3R,4S,5S)-3-tert-butyl-5-(3-chlorophenyl)-4-{[2-methoxy-5-(trifluoromethyl)pyridin-3-yl]methoxy}-1-[(2R)-oxane-2-carbonyl]pyrrolidine-2-carboxylic acid], the “Maximum % activity (with co-corrector)” value was “++ (≥150 and <350)”; the “Maximum % activity (without co-corrector)” value is given as “+ (<100)”. For the same compound, under setting [1], the EC50 was below 1 µM. Besides, under setting [2], the EC50 is below 1 µM.

For the compound `COc1ncc(C(F)(F)F)cc1CO[C@@H]1[C@H](C(C)(C)C)[C@@H](C(=O)O)N(C(=O)[C@@H]2CCCO2)[C@H]1c1ccccc1Br` [Example 126, (2S,3R,4R,5S)-5-(2-bromophenyl)-3-tert-butyl-4-{[2-methoxy-5-(trifluoromethyl)pyridin-3-yl]methoxy}-1-[(2S)-oxolane-2-carbonyl]pyrrolidine-2-carboxylic acid], the “Maximum % activity (with co-corrector)” value is recorded as “+ (<150)” and the “Maximum % activity (without co-corrector)” value is “+ (<100)”. The EC50 under setting [1] is above 10 µM. Further, the EC50 under setting [2] is above 10 µM.

Consider `COc1ncc(C(F)(F)F)cc1CO[C@H]1[C@H](C(C)(C)C)[C@@H](C(=O)O)N(C(=O)[C@@H]2CCCO2)[C@H]1c1ccnn1C(C)C` [Example 127, (2S,3R,4S,5S)-3-tert-butyl-4-{[2-methoxy-5-(trifluoromethyl)pyridin-3-yl]methoxy}-1-[(2S)-oxolane-2-carbonyl]-5-[1-(propan-2-yl)-1H-pyrazol-5-yl]pyrrolidine-2-carboxylic acid], for which the “Maximum % activity (with co-corrector)” value was “+ (<150)” and the “Maximum % activity (without co-corrector)” value was “+ (<100)”. The EC50 under setting [1] was above 10 µM. Under setting [2], the EC50 is above 10 µM.

For `COc1ncc(C(F)(F)F)cc1CO[C@H]1[C@H](C(C)(C)C)[C@@H](C(=O)O)N(C(=O)[C@@H]2CCCCO2)[C@H]1c1ccccc1C1CC1` [Example 128, (2S,3R,4S,5S)-3-tert-butyl-5-(2-cyclopropylphenyl)-4-{[2-methoxy-5-(trifluoromethyl)pyridin-3-yl]methoxy}-1-[(2S)-oxane-2-carbonyl]pyrrolidine-2-carboxylic acid], the “Maximum % activity (with co-corrector)” value was “+++ (≥350)”; the “Maximum % activity (without co-corrector)” value was “++ (≥100 and <200)”. Moreover, the EC50 under setting [1] was in the range of 1 to 10 µM. The EC50 under setting [2] was below 1 µM.

Consider `COc1ncc(C(F)(F)F)cc1CO[C@H]1[C@H](C(C)(C)C)[C@@H](C(=O)O)N(C(=O)[C@@H]2CCCO2)[C@H]1c1ccccc1C` [Example 129, (2S,3R,4S,5S)-3-tert-butyl-4-{[2-methoxy-5-(trifluoromethyl)pyridin-3-yl]methoxy}-5-(2-methylphenyl)-1-[(2S)-oxolane-2-carbonyl]pyrrolidine-2-carboxylic acid], for which the “Maximum % activity (with co-corrector)” value is “+++ (≥350)”; the “Maximum % activity (without co-corrector)” value is “++ (≥100 and <200)”. Moreover, the EC50 under setting [1] was in the range of 1 to 10 µM. In addition, the EC50 under setting [2] is below 1 µM.

`COc1ncc(C2CCC2)cc1CO[C@H]1[C@H](C(C)(C)C)[C@@H](C(=O)O)N(C(=O)[C@@H]2CCCO2)[C@H]1c1ccccc1C(C)C` [Example 130, (2S,3R,4S,5S)-3-tert-butyl-4-[(5-cyclobutyl-2-methoxypyridin-3-yl)methoxy]-1-[(2S)-oxolane-2-carbonyl]-5-[2-(propan-2-yl)phenyl]pyrrolidine-2-carboxylic acid]: the “Maximum % activity (with co-corrector)” value is on record as “+++ (≥350)”; the “Maximum % activity (without co-corrector)” value is “++ (≥100 and <200)”. In addition, the EC50 under setting [1] is below 1 µM. For the same compound, the concentration for a half-maximal effect (EC50) under setting [2] is below 1 µM.

Consider `COc1nc2ccccc2cc1CO[C@H]1[C@H](C(C)(C)C)[C@@H](C(=O)O)N(C(=O)[C@H]2CCCCO2)[C@H]1c1ccccc1C(C)C` [Example 131, (2S,3R,4S,5S)-3-tert-butyl-4-[(2-methoxyquinolin-3-yl)methoxy]-1-[(2R)-oxane-2-carbonyl]-5-[2-(propan-2-yl)phenyl]pyrrolidine-2-carboxylic acid], for which the “Maximum % activity (with co-corrector)” value is “++ (≥150 and <350)”; the “Maximum % activity (without co-corrector)” value is on record as “+ (<100)”. Also, the EC50 under setting [1] is below 1 µM. The EC50 under setting [2] is below 1 µM.

Regarding `COc1nc2ccccc2cc1CO[C@H]1[C@H](C(C)(C)C)[C@@H](C(=O)O)N(C(=O)[C@@H]2CCCCO2)[C@H]1c1ccccc1C(C)C` [Example 132, (2S,3R,4S,5S)-3-tert-butyl-4-[(2-methoxyquinolin-3-yl)methoxy]-1-[(2S)-oxane-2-carbonyl]-5-[2-(propan-2-yl)phenyl]pyrrolidine-2-carboxylic acid], the “Maximum % activity (with co-corrector)” value was “+++ (≥350)”; the “Maximum % activity (without co-corrector)” value is “++ (≥100 and <200)”. Further, the EC50 under setting [1] was 1 to 10 µM. Also, the EC50 under setting [2] is below 1 µM.

Consider `COc1ncc(C2CCC2)cc1CO[C@H]1[C@H](C(C)(C)C)[C@@H](C(=O)O)N(C(=O)[C@@H]2CCCO2)[C@H]1c1cccnc1OC(C)C` [Example 133, (2S,3R,4S,5S)-3-tert-butyl-4-[(5-cyclobutyl-2-methoxypyridin-3-yl)methoxy]-1-[(2S)-oxolane-2-carbonyl]-5-{2-[(propan-2-yl)oxy]pyridin-3-yl}pyrrolidine-2-carboxylic acid], for which the “Maximum % activity (with co-corrector)” value is reported as “+++ (≥350)”; the “Maximum % activity (without co-corrector)” value was “++ (≥100 and <200)”. Besides, the EC50 under setting [1] lay within 1 to 10 µM. For the same compound, the EC50 under setting [2] fell in the range of 1 to 10 µM.

In the case of `COc1ncc(C2CCC2)cc1CO[C@H]1[C@H](C(C)(C)C)[C@@H](C(=O)O)N(C(=O)C2CCOCC2)[C@H]1c1cccnc1OC(C)C` [Example 134, (2S,3R,4S,5S)-3-tert-butyl-4-[(5-cyclobutyl-2-methoxypyridin-3-yl)methoxy]-1-(oxane-4-carbonyl)-5-{2-[(propan-2-yl)oxy]pyridin-3-yl}pyrrolidine-2-carboxylic acid], the “Maximum % activity (with co-corrector)” value is “++ (≥150 and <350)”; the “Maximum % activity (without co-corrector)” value was “++ (≥100 and <200)”. The EC50 under setting [1] was 1 to 10 µM. Moreover, under setting [2], the EC50 was 1 to 10 µM.

Regarding `COc1ncc(C2CCC2)cc1CO[C@H]1[C@H](C(C)(C)C)[C@@H](C(=O)O)N(C(=O)[C@H]2CCCCO2)[C@H]1c1cccnc1OC(C)C` [Example 135, (2S,3R,4S,5S)-3-tert-butyl-4-[(5-cyclobutyl-2-methoxypyridin-3-yl)methoxy]-1-[(2R)-oxane-2-carbonyl]-5-{2-[(propan-2-yl)oxy]pyridin-3-yl}pyrrolidine-2-carboxylic acid], the “Maximum % activity (with co-corrector)” value was “+++ (≥350)”; the “Maximum % activity (without co-corrector)” value is “++ (≥100 and <200)”. For the same compound, the EC50 under setting [1] was in the range of 1 to 10 µM. In addition, the EC50 under setting [2] is below 1 µM.

Consider `COc1ncc(C2CCC2)cc1CO[C@H]1[C@H](C(C)(C)C)[C@@H](C(=O)O)N(C(=O)[C@@H]2CCCCO2)[C@H]1c1cccnc1OC(C)C` [Example 136, (2S,3R,4S,5S)-3-tert-butyl-4-[(5-cyclobutyl-2-methoxypyridin-3-yl)methoxy]-1-[(2S)-oxane-2-carbonyl]-5-{2-[(propan-2-yl)oxy]pyridin-3-yl}pyrrolidine-2-carboxylic acid], for which the “Maximum % activity (with co-corrector)” value is “+++ (≥350)”; the “Maximum % activity (without co-corrector)” value is “++ (≥100 and <200)”. In addition, the EC50 under setting [1] is below 1 µM. In addition, the EC50 under setting [2] was below 1 µM.

Regarding `COc1nc2ccccc2cc1CO[C@H]1[C@H](C(C)(C)C)[C@@H](C(=O)O)N(C(=O)OC(C)C)[C@H]1c1ccccc1Br` [Example 137, (2S,3R,4S,5S)-5-(2-bromophenyl)-3-tert-butyl-4-[(2-methoxyquinolin-3-yl)methoxy]-1-{[(propan-2-yl)oxy]carbonyl}pyrrolidine-2-carboxylic acid], the “Maximum % activity (with co-corrector)” value was “++ (≥150 and <350)”; the “Maximum % activity (without co-corrector)” value is “++ (≥100 and <200)”. In addition, the EC50 under setting [1] was in the range of 1 to 10 µM. Besides, under setting [2], the EC50 is below 1 µM.

What is called EC50 is the concentration needed to bring the measured effect to its halfway point.
